Patent US9534259B2, “DOT1 histone methyltransferases as a target for identifying therapeutic agents for leukemia” (The University of North Carolina at Chapel Hill, priority 2003, dated 2017)
Entries after “also recorded” stand apart in the source; their conditions may differ. Each block holds one compound with its values, some of them ahead of it. Ends that are not written are not given here. Peptide text beside a SMILES is read from it. * marks the point of attachment. Cbz = O=C(OCc1ccccc1)*

Key:
[1] = tested on: proteasome (stability of ubiquitinated FLAG-Tat and FLAG-hDOT1L); assay: In vivo ubiquitination assay in 293T cells with proteasome inhibitor; format: cell-based, human; set-up: dose or concentration left out as unconfirmed; conditions: HA-Ub co-expressed
Description: pcDNA3b-FLAG®-hDOT1L and pcDNA3b-FLAG®-Tat were transfected to 293T cells with or without pHA-Ubiquitin (Ub) by using FUGENE™ 6 transfection reagent (Roche Diagnostics, Indianapolis, Ind.). Twenty-four hours after transfection, MG132 was added at the final concentration of […], and the cells were cultured for […]. Cells were then lysed with lysis buffer (50 mM Tris-HCl, pH 7.5, 0.5 mM EDTA, 1% SDS, and 1 mM DTT), and boiled for 10 minutes before centrifugation at 14,000 rpm for 10 minutes. The supernatant was diluted by 10-fold with NP40 lysis buffer (50 mM Tris-HCl, pH 7.5, 150 mM NaCl, 0.1% NP40, 50 mM NaF, 10% glycerol, 1 mM DTT, and 1 mM PMSF), and incubated with […] of FLAG® (M2) antibody for 4 hours at 4° C. Protein G beads were then added and incubated further for one hour. The beads were washed three times with lysis buffer containing 0.5% of NP40 before eluting the protein with SDS sample buffer for SDS-PAGE analysis.
Protein ubiquitination is the major pathway for rapid protein degradation (Pickart (2001) Annu. Rev. Biochem 70:503-533). Toward this end, we asked whether hDOT1L is subjected to ubiquitination. We transfected 293T cells with a construct encoding FLAG®-hDOT1L with or without co-transfection of a construct encoding HA-tagged ubiquitin. […]

hDOT1L(1-416) = target: T1, hDOT1L(1-416) (Homo sapiens, UniProt Q8TEK3); assay: Histone methyltransferase assay with peptide competition; format: biochemical; conditions: 1.5, 15 or 150 μM peptide; oligo-nucleosome substrate; FIG. 6D lanes 1-4
T1 construct: The plasmid expressing the first 416 residues of hDOT1L, pGEX-KG/hDOT1L(1-416); GST (N, cleaved yes); made in house; host or cells: E. coli
T1 sequence (Q8TEK3 1-416): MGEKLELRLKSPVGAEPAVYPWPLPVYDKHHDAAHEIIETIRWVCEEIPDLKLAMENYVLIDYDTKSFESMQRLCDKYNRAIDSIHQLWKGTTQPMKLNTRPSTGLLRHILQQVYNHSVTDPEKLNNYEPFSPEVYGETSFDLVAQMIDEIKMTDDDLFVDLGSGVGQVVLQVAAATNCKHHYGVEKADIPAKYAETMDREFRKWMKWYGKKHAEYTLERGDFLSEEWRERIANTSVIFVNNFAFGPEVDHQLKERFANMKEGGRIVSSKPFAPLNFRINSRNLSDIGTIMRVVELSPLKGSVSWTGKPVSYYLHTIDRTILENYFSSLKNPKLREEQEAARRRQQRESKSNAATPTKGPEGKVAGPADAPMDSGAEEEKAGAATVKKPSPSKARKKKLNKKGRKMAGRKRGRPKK
Description: (§1) Histone methyltransferase assay was performed using established methods (Wang, et al. (2001) Science 293:853-857). Oligo-nucleosomes purified from HeLa cells or chicken blood cells were quantified and equal concentrations were used in each assay. Briefly, recombinant hDOT1L proteins (0.75 μM) were incubated with oligo-nucleosomes (1.5 μM) in reactions containing 20 mM Tris-HCl (pH 8.0), 4 mM EDTA, 1 mM PMSF, 0.5 mM DTT, and 0.5 μL ^3H-SAM (15 Ci/mM; NEN™ Life Science Products) for 1 hour at 30° C. For peptide competition, 1.5 μM, 15 μM, or 150 μM of positively charged C-RS10 peptide ([…] SEQ ID NO:20) were added to reactions. Reactions were stopped by addition of 7 μL of 5×SDS loading buffer and proteins were separated in an 18% SDS-PAGE. Following stain and destain of COMMASSIE® Blue, gels were treated with Rapid Autoradiography Enhancer (NEN™ Life Science Products, Boston Mass.) for 40 minutes, dried, and exposed to X-ray films. For quantitation, gel slices were excised and counted with scintillation counting. Two independent experiments were performed at the same time and average ^3H (CPM) values were used in the figures.

hDOT1L Δ(376-390) = target: T2, hDOT1L Δ(376-390) (Homo sapiens, UniProt Q8TEK3, DEL376-390); assay: as above; format: biochemical; conditions: 1.5, 15 or 150 μM peptide; oligo-nucleosome substrate; FIG. 6D lanes 5-8
T2 construct: GST (N, cleaved yes); made in house; host or cells: E. coli
T2 sequence (Q8TEK3 with tags, fused parts or gaps DEL376-390): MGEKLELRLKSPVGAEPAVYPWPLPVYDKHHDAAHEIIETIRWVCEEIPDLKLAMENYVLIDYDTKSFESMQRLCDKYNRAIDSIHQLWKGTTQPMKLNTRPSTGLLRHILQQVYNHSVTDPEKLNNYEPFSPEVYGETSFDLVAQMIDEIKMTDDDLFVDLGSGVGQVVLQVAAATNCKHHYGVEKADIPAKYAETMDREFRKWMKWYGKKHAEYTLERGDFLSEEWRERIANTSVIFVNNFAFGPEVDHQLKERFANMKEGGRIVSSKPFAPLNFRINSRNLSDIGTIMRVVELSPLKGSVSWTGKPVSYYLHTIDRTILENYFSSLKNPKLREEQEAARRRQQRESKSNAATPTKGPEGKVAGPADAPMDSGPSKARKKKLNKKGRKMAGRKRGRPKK
Description: as §1

[2] = tested on: hDOT1L binding to HeLa mono-nucleosomes; assay: Gel mobility shift assay (mono-nucleosome binding) with competitor peptide; set-up: species or system human; conditions: HeLa mono-nucleosomes 1.5 μM
Description: Different amount of recombinant hDOT1L proteins were incubated with HeLa mono-nucleosomes (1.5 μM) under the same conditions as those in the histone methyltransferase assay, except that SAM is omitted. Following incubation for 1 hour at 30° C., samples were resolved in a 1.8% agarose gel and visualized under UV by ethidium bromide staining.
We next examined mono-nucleosome binding of hDot1(1-416) and several of its truncation variants by gel mobility shift assays (GSMA). […] Consistent with this, we could detect strong, but apparently non-sequence specific, binding of hDOT1L(1-416) with DNA extracted from mono-nucleosomes. To further probe the nature of hDOT1L-nucleosome interaction, we used a 21-residue highly charged peptide, C-RS10, containing 10 tandem repeats of arginine and serine as a competitor in our nucleosome binding and HMTase assays.

[3] = tested on: CRM1-mediated nuclear export of hDOT1L NESs fused with EGFP; format: cell-based, human; conditions: 20 nM, eight hours after treatment, U2OS cells, FIG. 10E
Description: To further characterize the nuclear export ability of the three NESs identified, it was determined whether the NESs were involved in active nuclear export mediated by the CRM1 (chromosomal region maintenance) pathway. CRM1 was initially identified as a S. pombe protein whose mutation affects higher order chromosome structure (Adachi and Yanagida (1989) J. Cell Biol. 108:1195-1207). Subsequent studies indicate that CRM1 is an export receptor for Leucine-rich nuclear export signals (Fornerod, et al. (1997) Cell 90:1051-1060; Ossareh-Nazari, et al. (1997) Science 278:141-144; Stade, et al. (1997) Cell 90:1041-1050). […] To investigate the effect of LMB treatment on the nuclear export ability of the NESs, U2OS cells were transfected with constructs encoding each of the three NESs fused with EGFP in the presence or absence of 20 nM of LMB. Eight hours after LMB treatment, green fluorescence was observed under a microscope in living cells.

Compound: CC(C)C[C@@H](C=O)NC(=O)[C@H](CC(C)C)NC(=O)[C@H](CC(C)C)NC(=O)OCc1ccccc1 [MG132] (Cbz-Leu-Leu-Leu-aldehyde)
Stabilization of ubiquitinated FLAG-hDOT1L ([1]; FIG. 8A lanes 4 and 5): did not appear to stabilize | Stabilization of ubiquitinated Tat ([1]; FIG. 8A lanes 6 and 7): successfully stabilized ubiquitinated Tat

HMTase activity of hDOT1L(1-416) in presence of competitor peptide (hDOT1L(1-416)): effectively competed | HMTase activity of Δ(376-390) in presence of competitor peptide (hDOT1L Δ(376-390)): effectively competed
Compound: CRSRSRSRSRSRSRSRSRSRS
Effect of peptide on mono-nucleosome migration in GSMA [2]: prevented mono-nucleosomes from entering the gel well

Compound: CCC(=C/[C@H](C)C/C=C/C(C)=C/[C@@H](C)C(=O)[C@@H](C)[C@H](O)[C@@H](C)C/C(C)=C/C(=O)O)/C=C/[C@@H]1OC(=O)C=C[C@@H]1C [LMB, Leptomycin B]
Effect on nuclear export by NES1, NES2, NES3 fused with EGFP [3]: prevented nuclear export by all the three NESs; also recorded: can be blocked
